Reference: paper PMC11005233, “Targeting FTO induces colorectal cancer ferroptotic cell death by decreasing SLC7A11/GPX4 expression” (Journal of Experimental & Clinical Cancer Research : CR, 2024)

Molecular target: fat mass and obesity-associated protein (FTO) (Homo sapiens, UniProt Q9C0B1)
Assay: SPR (Biacore T200); also thermal shift, CETSA, cell-free m6A demethylase assay
Type: binding

fat mass and obesity-associated protein (FTO), sequence (Q9C0B1 whole entry): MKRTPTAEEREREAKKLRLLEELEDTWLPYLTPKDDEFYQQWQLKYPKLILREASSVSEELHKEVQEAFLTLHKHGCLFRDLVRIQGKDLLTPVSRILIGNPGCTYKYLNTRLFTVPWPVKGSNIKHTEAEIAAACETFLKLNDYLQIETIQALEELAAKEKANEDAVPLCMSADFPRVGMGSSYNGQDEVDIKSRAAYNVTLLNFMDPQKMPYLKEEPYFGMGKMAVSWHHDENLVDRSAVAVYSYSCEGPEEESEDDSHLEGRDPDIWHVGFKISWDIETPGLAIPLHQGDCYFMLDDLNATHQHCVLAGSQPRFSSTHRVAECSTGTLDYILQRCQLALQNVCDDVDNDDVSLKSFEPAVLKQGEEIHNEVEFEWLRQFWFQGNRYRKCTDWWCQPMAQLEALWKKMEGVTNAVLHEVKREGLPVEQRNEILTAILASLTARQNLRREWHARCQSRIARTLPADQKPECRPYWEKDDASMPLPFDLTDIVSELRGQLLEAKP

C/C(=C\C(=O)OCCCCCCCCC(=O)O)C[C@@H]1OC[C@H](C[C@@H]2O[C@H]2[C@@H](C)[C@H](C)O)[C@@H](O)[C@H]1O [Mupirocin]
Kd: 3.63 µM
